“Also recorded” adds a separate entry of the source.
Columns and labels:
[1] = target: BRD2, BRD3 and BRD4 (BET proteins) and interactors (Homo sapiens, UniProt P25440); experiment: BioTAC proximity labeling with label-free mass spectrometry-based proteomics of streptavidin-enriched biotinylated proteins; type: cell-based; conditions: 1 μM, 4 hr timepoint
Description: (§1) Having determined that the BioTAC system could identify BRD4 as a (+)-JQ1 target in focused screens, it was evaluated as an unbiased target-ID method. To identify direct binders of (+)-JQ1 proteome-wide, BioTAC proximity labelling experiments were performed as described above, followed by label-free mass spectrometry-based proteomic analysis of biotinylated proteins enriched following a 30 minute treatment with 100 μM biotin plus DMSO or 1 μM Cpd1, and then 1 μM Cpd1 off-competed by pre-treatment with 10 μM free (+)-JQ1.
(§2) Having established conditions for determining the primary targets of small molecules using the BioTAC system, its utility in reading out the interactome sphere of (+)-JQ1 bound BET-proteins was next investigated. An advantage of the BioTAC system is the relatively long half-life of the activated biotin-AMP intermediate generated by TurboID, allowing the labelling radius to be increased up to 35 nm by extending the labelling time. To quantitively evaluate the ability of the BioTAC system to successfully enrich the known interactome of (+)-JQ1 bound BET proteins, time course BioTAC proximity labelling experiments were performed at the 1 h and 4 h time points, and evaluated streptavidin-enriched biotinylated proteins using mass spectrometry-based proteomic analysis (FIG. 2A-C, FIG. 6). Longer time points correlated with a greater number of proteins meeting the significance cut-offs (defined as FC>2, P<0.05) for both enrichment in Cpd1 vs. DMSO, and competition with free (+)-JQ1 in Cpd1 vs. Cpd1+10 μM (+)-JQ1, (FIG. 2A, FIG. 6). […] Additionally, identified hit proteins at 1-4 hrs also included many known BET interactors, such as proteins found in components of the Pol II productive elongation complex subunit P-TEFb, the TFILD complex, and the Nucleosome Remodeling Deacetylase (NuRD) complex, as well as known BRD4 direct-binder Histone H4. […] To test this hypothesis the hits were compared to an extensive BET protein interactome reference dataset identified using AP/MS and proximity labelling coupled to mass spectrometry with and without (+)-JQ1. The BioTAC system afforded significant enrichment and off-competition (P<0.0001, one-way ANOVA) of identified reference interactors at the 4 h time point (FIG. 2B). Next it was asked whether the inverse could be performed, enriching complex members identified by Lambert et al. Mol Cell 73, 621-638 e617 (2019) directly from the data without any a priori knowledge of known interactors. It was discovered that 60% of the statistically significant enriched and (+)-JQ1 rescued hits were also present in the Lambert dataset. This observation falls greater than 7 standard deviations above a random bootstrap analysis of the data without filtering for significant enrichment and (+)-JQ1 rescue (FIG. 2C).
(§3) 9 million HEK293 cells were plated into 15 cm dishes containing 12 mL of complete media (DMEM, 10% FBS, 1% pen/strep) and incubated overnight. Cells were transiently transfected with 1 mL of OptiMEM media containing 10 μg of BioTAC plasmid and 30 μL of TransIT-2020 transfection reagent for 24 hr. Following a media change, cells were optionally pre-treated with parental molecules for 10 min, then treated with bifunctional compound for 10 min, and finally labeled in 100 μM biotin for 30 min, 1 hr, or 4 hrs. Cells were washed 5 times with DPBS then harvested by scraping on ice into 1.5 mL tubes. […] Lysates were clarified by centrifuging at 16,000×g for 10 min and protein concentration determined by BCA assay. […]

[2] = tested on: BRD2, BRD3 and BRD4 (BET proteins) and interactors; experiment: as above; type: cell-based
Description: as §1, §2, §3

BRD2, BRD3 and BRD4 (BET proteins) and interactors (Homo sapiens, UniProt P25440), sequence (P25440 whole entry): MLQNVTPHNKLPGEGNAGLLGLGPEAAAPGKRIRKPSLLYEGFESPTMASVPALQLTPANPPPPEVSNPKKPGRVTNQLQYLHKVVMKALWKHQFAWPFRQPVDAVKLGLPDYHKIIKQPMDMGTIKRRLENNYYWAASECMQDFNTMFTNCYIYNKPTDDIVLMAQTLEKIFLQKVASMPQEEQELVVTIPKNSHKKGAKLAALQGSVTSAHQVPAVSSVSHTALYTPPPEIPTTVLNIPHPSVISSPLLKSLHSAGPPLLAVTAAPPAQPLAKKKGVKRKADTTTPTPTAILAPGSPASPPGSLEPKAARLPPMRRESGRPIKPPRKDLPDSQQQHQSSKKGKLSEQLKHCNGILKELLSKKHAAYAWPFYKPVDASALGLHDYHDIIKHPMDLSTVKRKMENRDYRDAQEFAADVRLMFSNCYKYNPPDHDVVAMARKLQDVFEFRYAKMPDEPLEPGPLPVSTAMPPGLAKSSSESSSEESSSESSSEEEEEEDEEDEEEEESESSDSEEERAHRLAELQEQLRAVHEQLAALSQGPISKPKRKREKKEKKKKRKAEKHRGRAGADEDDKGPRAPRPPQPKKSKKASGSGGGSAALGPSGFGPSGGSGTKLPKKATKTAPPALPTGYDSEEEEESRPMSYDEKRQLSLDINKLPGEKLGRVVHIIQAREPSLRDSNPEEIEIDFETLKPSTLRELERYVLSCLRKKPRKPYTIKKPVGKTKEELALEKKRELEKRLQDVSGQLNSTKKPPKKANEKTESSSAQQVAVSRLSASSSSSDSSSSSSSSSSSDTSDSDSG
BRD2, BRD3 and BRD4 (BET proteins) and interactors (Homo sapiens, UniProt P25440), sequence (as listed by the source partner): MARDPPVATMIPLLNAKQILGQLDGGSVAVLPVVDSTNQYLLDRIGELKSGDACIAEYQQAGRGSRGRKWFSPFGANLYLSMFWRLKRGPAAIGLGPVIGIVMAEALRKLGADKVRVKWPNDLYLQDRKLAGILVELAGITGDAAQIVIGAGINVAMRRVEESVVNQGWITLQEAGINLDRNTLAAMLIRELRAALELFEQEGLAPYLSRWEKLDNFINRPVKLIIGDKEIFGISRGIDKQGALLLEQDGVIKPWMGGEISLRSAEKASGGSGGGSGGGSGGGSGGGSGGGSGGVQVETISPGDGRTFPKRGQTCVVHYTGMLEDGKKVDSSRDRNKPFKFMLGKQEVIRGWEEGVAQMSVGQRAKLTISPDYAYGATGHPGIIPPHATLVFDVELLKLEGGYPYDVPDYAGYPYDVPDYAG

CC[C@H](C(=O)N1CCCC[C@H]1C(=O)O[C@H](CCc1ccc(OC)c(OC)c1)c1ccccc1OCC(=O)NCCOCCOCCOCCNC(=O)C[C@@H]1N=C(c2ccc(Cl)cc2)c2c(sc(C)c2C)-n2c(C)nnc21)c1cc(OC)c(OC)c(OC)c1 [Cpd1, (R)-1-(2-((17-((S)-4-(4-Chlorophenyl)-2,3,9-trimethyl-6H-thieno[3,2-f][1,2,4]triazolo[4,3-a][1,4]diazepin-6-yl)-2,16-dioxo-6,9,12-trioxa-3,15-diazaheptadecyl)oxy)phenyl)-3-(3,4-dimethoxyphenyl)propyl (S)-1-((S)-2-(3,4,5-trimethoxyphenyl)butanoyl)piperidine-2-carboxylate]
detection of BRD2 (proteomics) [1]: detected
identification of BET-containing complexes (proteomics heatmap) ([2]; 1 μM with DMSO, 10 μM or 100 μM (+)-JQ1, FC>3, P<0.05): identifies known BET-containing complexes
enrichment and off-competition of BRD3 and BRD4 (time course proteomics) ([2]; 1 μM, 30 min, 1 h and 4 h, vs DMSO and +10 μM (+)-JQ1, FC>2, P<0.05): significantly enriched and off-competed at all time points
fold-change of reference BRD2, BRD3 and BRD4 interactors (Lambert et al.), rescue by (+)-JQ1 ([2]; 4 hr time point, P<0.0001, 1-way ANOVA): statistically significant rescue
enrichment of BRD3 and BRD4 among biotinylated proteins (proteomics) ([2]; HEK293, 1 μM, 100 μM biotin, 30 min, vs DMSO and 10 μM (+)-JQ1 off-compete): Highly selective enrichment of known (+)-JQ1 targets BRD3 and BRD4; also recorded: significant enrichment of BRD3 and BRD4

Reference: patent US20260063641A1, “COMPOSITIONS AND METHODS FOR LABELING AND DETECTING BINDING PARTNERS” (UNIVERSITY OF UTAH RESEARCH FOUNDATION, priority 2022, published 2026)
